In PubChem BioAssay AID248 (DTP/NCI, 2004):
Where “and” joins values, the source holds several entries; their conditions need not be identical. Equal values may be shown once. Toxic doses and inconclusive results are not listed.

Test system: L1210 leukemia ip in BDF1 mice, survival T/C
Assay: NCI In Vivo Anticancer Drug Screen. Data for tumor model L1210 Leukemia (intraperitoneal) in B6D2F1 (BDF1) mice
Settings: endpoint: mean survival time, higher = longer survival
How it was run: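 Tumor cells were implanted, animals were treated, and survival was followed. The result divides the treated measurement by the vehicle-control measurement.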

`Nc1nc(=S)c2ncn(C3OC(CO)C(O)C3O)c2[nH]1` (stereo not given) was tested, and the T/C (dose: 14.0 mg/kg/injection, schedule: Q## X032 (ip), vehicle: carboxymethylcellulose (CMC)) was 155 % of control, the T/C (dose: 16.0 mg/kg/injection, schedule: Q01DX009 (ip), vehicle: saline) was 104 % of control and the T/C (dose: 16.8 mg/kg/injection, schedule: Q01DX Z (oral), vehicle: carboxymethylcellulose (CMC)) was 108 % of control. The T/C (dose: 18.8 mg/kg/injection, schedule: Q01DX009 (ip), vehicle: saline) was 119 % of control, the T/C (dose: 18.8 mg/kg/injection, schedule: Q01DX Z (ip), vehicle: saline) was 103 % of control and the T/C (dose: 20.0 mg/kg/injection, schedule: Q01DX Z (ip), vehicle: saline) was 109 % of control. For the same compound, the T/C (dose: 20.0 mg/kg/injection, schedule: Q01DX Z (oral), vehicle: carboxymethylcellulose (CMC)) was 122 % of control, the T/C (dose: 22.0 mg/kg/injection, schedule: Q## X032 (ip), vehicle: carboxymethylcellulose (CMC)) was 155 % of control and the T/C (dose: 22.5 mg/kg/injection, schedule: Q01DX001 (oral), vehicle: carboxymethylcellulose (CMC)) was 154 % of control. For the same compound, the T/C (dose: 25.0 mg/kg/injection, schedule: Q01DX005 (ip), vehicle: saline) was 94 % of control and 111 % of control and 117 % of control, the T/C (dose: 25.0 mg/kg/injection, schedule: Q01DX009 (ip), vehicle: saline) was 100 % of control and 120 % of control and 94 % of control and the T/C (dose: 30.0 mg/kg/injection, schedule: Q01DX Z (ip), vehicle: saline) was 93 % of control. The T/C (dose: 32.0 mg/kg/injection, schedule: Q## X032 (ip), vehicle: carboxymethylcellulose (CMC)) was 119 % of control, the T/C (dose: 36.0 mg/kg/injection, schedule: Q## X016 (ip), vehicle: carboxymethylcellulose (CMC)) was 122 % of control and the T/C (dose: 37.5 mg/kg/injection, schedule: Q01DX009 (ip), vehicle: saline) was 108 % of control. For the same compound, the T/C (dose: 37.5 mg/kg/injection, schedule: Q01DX010 (ip), vehicle: saline) was 97 % of control, the T/C (dose: 40.0 mg/kg/injection, schedule: Q01DX Z (oral), vehicle: carboxymethylcellulose (CMC)) was 101 % of control and the T/C (dose: 45.0 mg/kg/injection, schedule: Q01DX001 (ip), vehicle: carboxymethylcellulose (CMC)) was 155 % of control. The T/C (dose: 45.0 mg/kg/injection, schedule: Q02DX008 (ip), vehicle: carboxymethylcellulose (CMC)) was 157 % of control, the T/C (dose: 50.0 mg/kg/injection, schedule: Q01DX001 (ip), vehicle: saline) was 96 % of control and the T/C (dose: 50.0 mg/kg/injection, schedule: Q01DX005 (ip), vehicle: saline) was 111 % of control. For the same compound, the T/C (dose: 67.0 mg/kg/injection, schedule: Q## X004 (ip), vehicle: carboxymethylcellulose (CMC)) was 151 % of control, the T/C (dose: 75.0 mg/kg/injection, schedule: Q01DX009 (ip), vehicle: saline) was 96 % of control and the T/C (dose: 90.0 mg/kg/injection, schedule: Q01DX001 (sc), vehicle: carboxymethylcellulose (CMC)) was 156 % of control. For the same compound, the T/C (dose: 100.0 mg/kg/injection, schedule: Q01DX001 (ip), vehicle: carboxymethylcellulose (CMC)) was 155 % of control, the T/C (dose: 100.0 mg/kg/injection, schedule: Q01DX001 (ip), vehicle: saline) was 102 % of control and the T/C (dose: 100.0 mg/kg/injection, schedule: Q01DX009 (ip), vehicle: saline) was 104 % of control. For the same compound, the T/C (dose: 144.0 mg/kg/injection, schedule: Q01DX001 (ip), vehicle: carboxymethylcellulose (CMC)) was 158 % of control, the T/C (dose: 150.0 mg/kg/injection, schedule: Q01DX001 (ip), vehicle: carboxymethylcellulose (CMC)) was 157 % of control and the T/C (dose: 180.0 mg/kg/injection, schedule: Q01DX001 (ip), vehicle: carboxymethylcellulose (CMC)) was 154 % of control. The T/C (dose: 180.0 mg/kg/injection, schedule: Q## X002 (ip), vehicle: carboxymethylcellulose (CMC)) was 109 % of control, the T/C (dose: 200.0 mg/kg/injection, schedule: Q01DX001 (ip), vehicle: saline) was 98 % of control and the T/C (dose: 200.0 mg/kg/injection, schedule: Q01DX005 (ip), vehicle: saline) was 120 % of control and 106 % of control. The T/C (dose: 200.0 mg/kg/injection, schedule: Q01DX009 (ip), vehicle: saline) was 105 % of control, the T/C (dose: 225.0 mg/kg/injection, schedule: Q01DX001 (ip), vehicle: carboxymethylcellulose (CMC)) was 150 % of control and the T/C (dose: 225.0 mg/kg/injection, schedule: Q## X004 (ip), vehicle: carboxymethylcellulose (CMC)) was 119 % of control. For the same compound, the T/C (dose: 270.0 mg/kg/injection, schedule: Q01DX001 (ip), vehicle: carboxymethylcellulose (CMC)) was 124 % of control, the T/C (dose: 360.0 mg/kg/injection, schedule: Q01DX001 (sc), vehicle: carboxymethylcellulose (CMC)) was 95 % of control and the T/C (dose: 360.0 mg/kg/injection, schedule: Q## X003 (oral), vehicle: carboxymethylcellulose (CMC)) was 110 % of control. The T/C (dose: 400.0 mg/kg/injection, schedule: Q01DX001 (ip), vehicle: carboxymethylcellulose (CMC)) was 103 % of control, the T/C (dose: 400.0 mg/kg/injection, schedule: Q01DX009 (ip), vehicle: saline) was 94 % of control and the T/C (dose: 720.0 mg/kg/injection, schedule: Q01DX001 (oral), vehicle: carboxymethylcellulose (CMC)) was 109 % of control. For the same compound, the T/C (dose: 84.0 micrograms/kg/injection, schedule: Q01DX Z (ip), vehicle: saline) was 121 % of control, the T/C (dose: 120.0 micrograms/kg/injection, schedule: Q01DX Z (ip), vehicle: saline) was 115 % of control and the T/C (dose: 290.0 micrograms/kg/injection, schedule: Q01DX Z (ip), vehicle: saline) was 151 % of control.
